We go through 17 compounds from ChEMBL document CHEMBL3132820, “Dinaphthonaphthyridines a class of novel molecules with potent antioxidant and anticancer activity” (Medchemcomm, 2013).

Assay [1] concerns AGS. Briefly: Cytotoxicity against human AGS cells after 48 hrs by MTT assay. In kind it is functional, cell-based.
The nature of assay [2]: Antioxidant activity assessed as superoxide anion radical scavenging activity after 90 seconds by formazan method. The format is functional.
For assay [3], the system named is HCT-116. Briefly: Cytotoxicity against human HCT116 cells after 48 hrs by MTT assay. The format is functional, cell-based. The conditions noted are these: HCT-116, 48 h.
Assay [4] has as its system Radical scavenging activity. Description: Antioxidant activity assessed as DPPH radical scavenging activity. In kind it is functional. In general terms: Loss of DPPH colour is used to gauge radical scavenging.
Assay [5] can be described thus: Antioxidant activity assessed as hydroxyl radical scavenging activity after 15 mins by spectrophotometry. In kind it is functional.
Assay [6] relates to HeLa. Briefly: Cytotoxicity against human HeLa cells after 48 hrs by MTT assay. In kind it is functional, cell-based. In general terms: Tetrazolium dyes change colour on reduction, which living cells bring about.
Assay [7] can be described thus: Antioxidant activity assessed as ABTS radical scavenging activity after 30 mins by spectrophotometry. In kind it is functional.

SMILES strings stand for the structures. ≈ marks a conversion by molar mass, not a printed value. Some results are limits rather than exact numbers.

On to `Cc1nc2c3ccccc3ccc2c2nc3c(ccc4ccccc43)c(C)c12`, for which the IC50 (commonly the concentration that inhibits the measured activity by half) in assay [1] was greater than 80 µM; in assay [2], 194.5 µg/mL (≈ 543 µM); in assay [3] it was greater than 80 µM; in assay [4], 46.6 µg/mL (≈ 130 µM); in assay [5] it was 89.6 µg/mL (≈ 250 µM); in assay [6], greater than 80 µM. For the same compound, the IC50 in assay [7] was 128.5 µg/mL (≈ 358 µM).
For the compound `Cc1nc2c3ccccc3ccc2c2nc3c(ccc4ccccc43)c(-c3ccccc3S)c12`, the 50% inhibitory concentration (IC50) in assay [1] came to 4.07 µM; in assay [2] it was 158.3 µg/mL (≈ 350 µM); in assay [3] it was 1.42 µM; in assay [4] it was 10.2 µg/mL (≈ 22.5 µM); in assay [5], 49.6 µg/mL (≈ 110 µM); in assay [6] it was 3.19 µM. Moreover, the half-inhibitory concentration (IC50) in assay [7] stood at 89 µg/mL (≈ 197 µM).
Turning to `Cc1nc2c3ccccc3ccc2c2nc3c(ccc4ccccc43)c(-c3cccnc3)c12`, the 50% inhibitory concentration (IC50) in assay [1] was 3.96 µM; in assay [2], 156.1 µg/mL (≈ 370 µM); in assay [3], 34.2 µM; in assay [4] it was 16.9 µg/mL (≈ 40.1 µM); in assay [5] it was 63.6 µg/mL (≈ 151 µM); in assay [6] it was 3.86 µM. In addition, the half-maximal inhibitory concentration (IC50) in assay [7] is 98.2 µg/mL (≈ 233 µM).
Regarding `Cc1nc2c3ccccc3ccc2c2nc3c(ccc4ccccc43)c(-c3ccccc3)c12`, the half-inhibitory concentration (IC50) in assay [1] is greater than 80 µM; in assay [2], 188.1 µg/mL (≈ 447 µM); in assay [3], greater than 80 µM; in assay [4] it was 31.3 µg/mL (≈ 74.4 µM); in assay [5], 84.6 µg/mL (≈ 201 µM); in assay [6], greater than 80 µM. In addition, in assay [7], the half-inhibitory concentration (IC50) stood at 164.3 µg/mL (≈ 391 µM).
Regarding `Cc1nc2c3ccccc3ccc2c2nc3c(ccc4ccccc43)c(-c3cc([N+](=O)[O-])ccc3N)c12`, the IC50 in assay [1] was 17.8 µM; in assay [2], 110.1 µg/mL (≈ 229 µM); in assay [3] it was 6.01 µM; in assay [4] it was 11.3 µg/mL (≈ 23.5 µM); in assay [5], 43.3 µg/mL (≈ 90.1 µM); in assay [6] it was 5.77 µM. Besides, the 50% inhibitory concentration (IC50) in assay [7] was 93.1 µg/mL (≈ 194 µM).
For `Cc1nc2c3ccccc3ccc2c2nc3c(ccc4ccccc43)c(-c3nccnc3N)c12`, the half-inhibitory concentration (IC50) was found to be 2.26 µM in assay [1]; 133.9 µg/mL (≈ 306 µM) in assay [2]; 3.56 µM in assay [3]; 12 µg/mL (≈ 27.4 µM) in assay [4]; 47.8 µg/mL (≈ 109 µM) in assay [5]; 1.21 µM in assay [6]. Besides, in assay [7], the IC50 was determined as 81.7 µg/mL (≈ 187 µM).
In the case of `Cc1cc(Nc2cccc3ccccc23)c2ccc3ccccc3c2n1`, the IC50 stood at 4.01 µM in assay [1]; 186.2 µg/mL (≈ 557 µM) in assay [2]; 5.61 µM in assay [3]; 18.2 µg/mL (≈ 54.4 µM) in assay [4]; 62.3 µg/mL (≈ 186 µM) in assay [5]; 3.45 µM in assay [6]. The IC50 in assay [7] turned out to be 115.2 µg/mL (≈ 344 µM).
`Cc1nc2c3ccccc3ccc2c2nc3c(ccc4ccccc43)c(-c3ccc(O)cc3)c12`: the IC50 in assay [1] was 14.2 µM; in assay [2], 99 µg/mL (≈ 227 µM); in assay [3], 3.19 µM; in assay [4], 10.4 µg/mL (≈ 23.8 µM); in assay [5], 44.1 µg/mL (≈ 101 µM); in assay [6], 4.63 µM. Also, the IC50 in assay [7] worked out at 86.4 µg/mL (≈ 198 µM).
On to `Cc1nc2c3ccccc3ccc2c2nc3c(ccc4ccccc43)c(-c3cccc4ccccc34)c12`, for which the IC50 came to 12.1 µM in assay [1]; 179.3 µg/mL (≈ 381 µM) in assay [2]; 20.8 µM in assay [3]; 26.1 µg/mL (≈ 55.5 µM) in assay [4]; 64.3 µg/mL (≈ 137 µM) in assay [5]; 14.9 µM in assay [6]. In addition, the IC50 in assay [7] came out at 110.5 µg/mL (≈ 235 µM).
Regarding `COc1ccc(O)c(C(C)(C)C)c1.COc1ccc(O)cc1C(C)(C)C` [BUTYLATED HYDROXYANISOLE], the 50% inhibitory concentration (IC50) in assay [2] was found to be 79.6 µg/mL; in assay [4], 9.7 µg/mL; in assay [5] it was 75.7 µg/mL; in assay [7], 96.8 µg/mL.
Regarding `Cc1ccc(-c2c3ccc4ccccc4c3nc3c2c(C)nc2c4ccccc4ccc32)cc1`, the IC50 in assay [1] was greater than 80 µM; in assay [2] it was 191.5 µg/mL (≈ 441 µM); in assay [3], 67 µM; in assay [4] it was 24.5 µg/mL (≈ 56.4 µM); in assay [5], 68.7 µg/mL (≈ 158 µM); in assay [6], 72.2 µM. Moreover, in assay [7], the IC50 is 123.3 µg/mL (≈ 284 µM).
Turning to `Cc1nc2c3ccccc3ccc2c2nc3c(ccc4ccccc43)c(-c3cccc([N+](=O)[O-])c3)c12`, the IC50 is 25.5 µM in assay [1]; 157.3 µg/mL (≈ 338 µM) in assay [2]; 13.2 µM in assay [3]; 33.3 µg/mL (≈ 71.5 µM) in assay [4]; 54.2 µg/mL (≈ 116 µM) in assay [5]; 50.7 µM in assay [6]. Further, the half-inhibitory concentration (IC50) in assay [7] came to 116.8 µg/mL (≈ 251 µM).
Take `COc1cccc2c1C(=O)c1c(O)c3c(c(O)c1C2=O)C[C@@](O)(C(=O)CO)C[C@@H]3O[C@H]1C[C@H](N)[C@H](O)[C@H](C)O1` [DOXORUBICIN]: the values for the IC50 in assay [1], in assay [3] and in assay [6] were 10.9 µM, 8.7 µM and 6.3 µM, respectively.
On to `Cc1nc2c3ccccc3ccc2c2nc3c(ccc4ccccc43)c(-c3cc(O)nc4ccccc34)c12`, for which the IC50 is 15.8 µM in assay [1]; 147.7 µg/mL (≈ 303 µM) in assay [2]; 4.63 µM in assay [3]; 14.1 µg/mL (≈ 28.9 µM) in assay [4]; 44.8 µg/mL (≈ 91.9 µM) in assay [5]; 4.88 µM in assay [6]. Further, the IC50 in assay [7] was determined as 92.1 µg/mL (≈ 189 µM).
Consider `COc1ccc(-c2c3ccc4ccccc4c3nc3c2c(C)nc2c4ccccc4ccc32)cc1`, for which the IC50 was 66.4 µM in assay [1]; 176.4 µg/mL (≈ 392 µM) in assay [2]; greater than 80 µM in assay [3]; 27.5 µg/mL (≈ 61 µM) in assay [4]; 82.3 µg/mL (≈ 183 µM) in assay [5]; 45.9 µM in assay [6]. Also, in assay [7], the IC50 came out at 132.5 µg/mL (≈ 294 µM).
For `Cc1nc2c3ccccc3ccc2c2nc3c(ccc4ccccc43)c(-c3ccccc3Cl)c12`, the half-inhibitory concentration (IC50) in assay [1] was 52.5 µM; in assay [2], 170 µg/mL (≈ 374 µM); in assay [3], 48.2 µM; in assay [4], 43 µg/mL (≈ 94.5 µM); in assay [5], 74.6 µg/mL (≈ 164 µM); in assay [6], greater than 80 µM. The half-maximal inhibitory concentration (IC50) in assay [7] was 118.1 µg/mL (≈ 260 µM).
In the case of `Cc1nc2c3ccccc3ccc2c2nc3c(ccc4ccccc43)c(-c3ccccc3N)c12`, the concentration for half-maximal inhibition (IC50) in assay [1] was determined as 12.1 µM; in assay [2], 124.6 µg/mL (≈ 286 µM); in assay [3], 4.76 µM; in assay [4], 17.5 µg/mL (≈ 40.2 µM); in assay [5], 45.6 µg/mL (≈ 105 µM); in assay [6], 16.2 µM. The IC50 in assay [7] came to 95.4 µg/mL (≈ 219 µM).
